# ChEMBL document CHEMBL4507319 (2021)
# Key:
# [1] = target: T1, Dual specificity mitogen-activated protein kinase kinase 7 (Homo sapiens) (UniProt O14733); conditions: Compound concentration 1000.0 nM
# T1 sequence (whole entry): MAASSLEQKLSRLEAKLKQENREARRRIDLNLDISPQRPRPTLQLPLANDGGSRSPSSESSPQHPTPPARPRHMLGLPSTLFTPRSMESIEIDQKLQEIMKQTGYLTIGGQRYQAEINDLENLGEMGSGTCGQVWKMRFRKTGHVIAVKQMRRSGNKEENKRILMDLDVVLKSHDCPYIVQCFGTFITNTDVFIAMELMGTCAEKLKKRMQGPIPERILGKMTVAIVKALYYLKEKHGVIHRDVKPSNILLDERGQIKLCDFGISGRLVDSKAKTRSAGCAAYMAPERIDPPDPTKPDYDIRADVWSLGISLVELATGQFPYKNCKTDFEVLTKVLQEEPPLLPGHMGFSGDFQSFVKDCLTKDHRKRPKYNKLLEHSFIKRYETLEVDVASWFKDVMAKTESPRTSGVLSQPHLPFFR
# [2] = target: T2, Dual specificity protein kinase TTK (Homo sapiens) (UniProt P33981); conditions: Compound concentration 1000.0 nM
# T2 sequence (whole entry): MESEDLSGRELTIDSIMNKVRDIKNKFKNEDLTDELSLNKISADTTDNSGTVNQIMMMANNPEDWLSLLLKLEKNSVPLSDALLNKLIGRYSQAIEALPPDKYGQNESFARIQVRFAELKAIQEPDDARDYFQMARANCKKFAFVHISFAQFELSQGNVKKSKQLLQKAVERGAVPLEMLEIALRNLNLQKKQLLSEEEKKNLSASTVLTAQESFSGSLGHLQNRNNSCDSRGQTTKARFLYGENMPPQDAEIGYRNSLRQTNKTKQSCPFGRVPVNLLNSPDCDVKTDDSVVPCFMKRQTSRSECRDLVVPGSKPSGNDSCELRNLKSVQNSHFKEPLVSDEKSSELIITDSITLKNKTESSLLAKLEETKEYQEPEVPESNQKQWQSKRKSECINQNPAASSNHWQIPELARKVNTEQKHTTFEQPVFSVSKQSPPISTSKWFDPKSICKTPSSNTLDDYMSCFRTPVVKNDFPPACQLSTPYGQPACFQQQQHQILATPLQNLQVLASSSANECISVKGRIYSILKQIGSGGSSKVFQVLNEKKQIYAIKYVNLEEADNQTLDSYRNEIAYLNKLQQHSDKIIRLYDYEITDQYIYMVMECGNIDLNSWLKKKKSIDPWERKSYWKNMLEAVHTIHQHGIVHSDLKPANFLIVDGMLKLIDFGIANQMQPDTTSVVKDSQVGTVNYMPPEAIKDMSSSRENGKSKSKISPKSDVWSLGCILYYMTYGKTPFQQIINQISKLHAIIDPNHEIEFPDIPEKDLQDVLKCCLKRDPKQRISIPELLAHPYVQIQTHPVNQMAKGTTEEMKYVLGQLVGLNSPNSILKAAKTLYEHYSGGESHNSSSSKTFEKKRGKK
# [3] = target: Cyclin-dependent kinase 9 (Homo sapiens) (UniProt P50750); conditions: Compound concentration 1000.0 nM
# Chain of Cyclin-dependent kinase 9 (Homo sapiens) (P50750 whole entry): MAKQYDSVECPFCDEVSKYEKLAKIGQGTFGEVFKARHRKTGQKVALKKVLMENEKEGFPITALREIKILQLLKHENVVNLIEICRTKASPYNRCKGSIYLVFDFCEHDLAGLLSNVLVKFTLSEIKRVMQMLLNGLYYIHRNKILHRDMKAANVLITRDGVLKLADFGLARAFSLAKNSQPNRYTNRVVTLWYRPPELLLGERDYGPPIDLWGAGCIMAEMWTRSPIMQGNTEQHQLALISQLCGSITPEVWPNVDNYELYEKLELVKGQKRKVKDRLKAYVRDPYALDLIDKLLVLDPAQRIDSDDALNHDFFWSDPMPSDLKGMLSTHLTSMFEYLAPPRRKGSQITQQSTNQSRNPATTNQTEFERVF
# [4] = target: RAC-beta serine/threonine-protein kinase (Homo sapiens) (UniProt P31751); conditions: Compound concentration 1000.0 nM
# Chain of RAC-beta serine/threonine-protein kinase (Homo sapiens) (P31751 whole entry, canonical isoform): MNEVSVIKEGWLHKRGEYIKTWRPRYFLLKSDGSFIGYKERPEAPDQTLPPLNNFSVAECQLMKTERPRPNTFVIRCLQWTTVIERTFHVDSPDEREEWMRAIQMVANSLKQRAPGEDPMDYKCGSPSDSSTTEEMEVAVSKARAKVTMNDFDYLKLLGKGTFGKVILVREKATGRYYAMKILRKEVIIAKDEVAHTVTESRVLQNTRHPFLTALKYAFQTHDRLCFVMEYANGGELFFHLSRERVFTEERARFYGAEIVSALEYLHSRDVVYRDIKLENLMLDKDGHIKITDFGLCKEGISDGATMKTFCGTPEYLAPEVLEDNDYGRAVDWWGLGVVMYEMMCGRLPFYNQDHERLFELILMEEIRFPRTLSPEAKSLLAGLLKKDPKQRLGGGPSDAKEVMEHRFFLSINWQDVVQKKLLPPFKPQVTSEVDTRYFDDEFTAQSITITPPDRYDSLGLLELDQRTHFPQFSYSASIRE
# [5] = test system: Phosphatidylinositol 4,5-bisphosphate 3-kinase catalytic subunit alpha isoform (Homo sapiens), P42336 [E542K]; conditions: Compound concentration 1000.0 nM
# Chain of Phosphatidylinositol 4,5-bisphosphate 3-kinase catalytic subunit alpha isoform (Homo sapiens), P42336 [E542K] (P42336 whole entry E542K, canonical isoform): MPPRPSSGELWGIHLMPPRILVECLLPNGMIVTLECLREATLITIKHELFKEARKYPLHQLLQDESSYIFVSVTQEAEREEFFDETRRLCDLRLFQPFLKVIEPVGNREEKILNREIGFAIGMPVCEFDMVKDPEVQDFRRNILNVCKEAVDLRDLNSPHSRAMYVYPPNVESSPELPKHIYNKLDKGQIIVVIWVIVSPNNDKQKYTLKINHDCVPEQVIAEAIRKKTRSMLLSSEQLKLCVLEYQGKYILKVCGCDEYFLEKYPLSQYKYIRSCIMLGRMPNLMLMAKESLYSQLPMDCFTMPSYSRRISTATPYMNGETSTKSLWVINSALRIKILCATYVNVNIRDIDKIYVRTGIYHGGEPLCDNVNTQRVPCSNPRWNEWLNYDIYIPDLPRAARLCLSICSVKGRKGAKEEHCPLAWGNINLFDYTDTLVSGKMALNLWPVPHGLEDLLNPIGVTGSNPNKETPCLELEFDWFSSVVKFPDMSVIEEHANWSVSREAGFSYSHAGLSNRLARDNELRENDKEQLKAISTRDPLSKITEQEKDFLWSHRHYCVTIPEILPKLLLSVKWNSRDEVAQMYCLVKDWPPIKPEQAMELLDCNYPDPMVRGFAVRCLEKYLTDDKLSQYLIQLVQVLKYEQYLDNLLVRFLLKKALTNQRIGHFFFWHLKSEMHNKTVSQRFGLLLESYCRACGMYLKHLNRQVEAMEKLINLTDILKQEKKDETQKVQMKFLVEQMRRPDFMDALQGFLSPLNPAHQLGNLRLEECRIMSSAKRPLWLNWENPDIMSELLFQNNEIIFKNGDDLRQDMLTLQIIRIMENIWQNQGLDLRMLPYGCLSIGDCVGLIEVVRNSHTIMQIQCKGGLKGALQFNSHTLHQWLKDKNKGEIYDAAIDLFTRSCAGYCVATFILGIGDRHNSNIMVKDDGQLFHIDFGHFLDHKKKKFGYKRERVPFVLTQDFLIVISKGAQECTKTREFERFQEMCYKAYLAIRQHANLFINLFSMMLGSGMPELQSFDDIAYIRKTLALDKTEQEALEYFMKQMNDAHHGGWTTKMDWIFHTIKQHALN
# [6] = target: STE20/SPS1-related proline-alanine-rich protein kinase (Homo sapiens) (UniProt Q9UEW8); conditions: Compound concentration 1000.0 nM
# [7] = target: T3, Serine/threonine-protein kinase D1 (Homo sapiens) (UniProt Q15139); conditions: Compound concentration 1000.0 nM
# T3 sequence (whole entry): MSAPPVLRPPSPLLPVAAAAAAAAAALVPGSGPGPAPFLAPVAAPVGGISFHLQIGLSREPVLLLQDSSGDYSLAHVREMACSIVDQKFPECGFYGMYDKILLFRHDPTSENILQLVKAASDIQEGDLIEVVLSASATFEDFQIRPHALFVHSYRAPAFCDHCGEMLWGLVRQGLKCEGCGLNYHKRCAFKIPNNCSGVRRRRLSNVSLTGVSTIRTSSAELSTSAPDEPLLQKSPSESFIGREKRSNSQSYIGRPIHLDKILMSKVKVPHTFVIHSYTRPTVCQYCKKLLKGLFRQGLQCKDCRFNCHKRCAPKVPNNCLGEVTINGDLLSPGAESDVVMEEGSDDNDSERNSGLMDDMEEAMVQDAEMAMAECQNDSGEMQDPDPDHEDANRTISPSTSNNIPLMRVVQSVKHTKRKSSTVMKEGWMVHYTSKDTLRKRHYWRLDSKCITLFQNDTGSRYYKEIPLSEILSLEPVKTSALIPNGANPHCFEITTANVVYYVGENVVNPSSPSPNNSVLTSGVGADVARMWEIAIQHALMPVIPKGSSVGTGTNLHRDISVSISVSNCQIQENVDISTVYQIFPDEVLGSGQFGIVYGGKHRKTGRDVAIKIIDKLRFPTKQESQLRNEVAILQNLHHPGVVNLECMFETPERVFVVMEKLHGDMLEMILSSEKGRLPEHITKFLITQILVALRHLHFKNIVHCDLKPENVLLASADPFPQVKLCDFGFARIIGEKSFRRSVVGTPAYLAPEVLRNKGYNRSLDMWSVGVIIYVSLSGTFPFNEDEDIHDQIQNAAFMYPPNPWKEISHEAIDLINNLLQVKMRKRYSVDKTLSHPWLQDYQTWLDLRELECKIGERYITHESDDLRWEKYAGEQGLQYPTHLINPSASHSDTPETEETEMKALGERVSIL
# [8] = target: Vascular endothelial growth factor receptor 3 (Homo sapiens) (UniProt P35916); conditions: Compound concentration 1000.0 nM
# Chain of Vascular endothelial growth factor receptor 3 (Homo sapiens) (P35916 whole entry): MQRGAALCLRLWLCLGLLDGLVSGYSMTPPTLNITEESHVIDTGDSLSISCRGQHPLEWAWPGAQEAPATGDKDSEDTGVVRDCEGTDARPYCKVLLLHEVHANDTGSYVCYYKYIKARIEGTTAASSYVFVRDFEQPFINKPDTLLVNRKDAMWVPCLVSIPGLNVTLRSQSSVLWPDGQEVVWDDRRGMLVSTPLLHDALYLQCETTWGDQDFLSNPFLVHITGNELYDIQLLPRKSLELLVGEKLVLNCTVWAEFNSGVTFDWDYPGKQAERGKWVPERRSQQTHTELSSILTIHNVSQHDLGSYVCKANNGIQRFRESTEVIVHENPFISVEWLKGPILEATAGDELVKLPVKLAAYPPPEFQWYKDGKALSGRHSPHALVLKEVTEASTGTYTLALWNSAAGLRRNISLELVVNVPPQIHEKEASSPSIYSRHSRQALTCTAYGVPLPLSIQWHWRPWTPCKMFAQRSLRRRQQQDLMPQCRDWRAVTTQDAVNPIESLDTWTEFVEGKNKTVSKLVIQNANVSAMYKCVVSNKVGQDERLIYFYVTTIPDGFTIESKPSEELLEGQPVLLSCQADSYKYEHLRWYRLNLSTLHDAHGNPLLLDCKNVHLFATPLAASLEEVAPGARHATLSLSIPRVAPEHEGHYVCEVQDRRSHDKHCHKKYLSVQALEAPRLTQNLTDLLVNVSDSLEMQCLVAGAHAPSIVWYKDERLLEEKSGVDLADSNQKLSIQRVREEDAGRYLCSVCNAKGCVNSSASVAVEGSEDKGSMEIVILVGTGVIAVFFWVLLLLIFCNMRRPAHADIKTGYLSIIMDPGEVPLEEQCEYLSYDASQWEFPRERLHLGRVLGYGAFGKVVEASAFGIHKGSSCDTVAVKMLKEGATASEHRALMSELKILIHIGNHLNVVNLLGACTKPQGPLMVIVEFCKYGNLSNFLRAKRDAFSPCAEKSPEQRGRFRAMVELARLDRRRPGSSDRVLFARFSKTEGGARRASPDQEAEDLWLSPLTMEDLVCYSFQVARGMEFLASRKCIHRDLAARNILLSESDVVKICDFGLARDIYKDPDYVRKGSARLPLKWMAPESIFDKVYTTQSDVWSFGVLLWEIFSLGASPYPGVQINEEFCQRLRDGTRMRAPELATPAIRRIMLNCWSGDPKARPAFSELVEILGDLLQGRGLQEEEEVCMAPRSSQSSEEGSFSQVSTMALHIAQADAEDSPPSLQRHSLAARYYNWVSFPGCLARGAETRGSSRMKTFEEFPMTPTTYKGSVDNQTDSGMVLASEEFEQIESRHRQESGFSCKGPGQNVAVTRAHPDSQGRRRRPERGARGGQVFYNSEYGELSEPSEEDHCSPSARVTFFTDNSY
# [9] = test system: Epidermal growth factor receptor (Homo sapiens), P00533 [UNDEFINED MUTATION]; conditions: Compound concentration 1000.0 nM
# [10] = target: 5-hydroxytryptamine receptor 2A (Homo sapiens) (UniProt P28223); conditions: Compound concentration 10.0 uM
# Chain of 5-hydroxytryptamine receptor 2A (Homo sapiens) (P28223 whole entry): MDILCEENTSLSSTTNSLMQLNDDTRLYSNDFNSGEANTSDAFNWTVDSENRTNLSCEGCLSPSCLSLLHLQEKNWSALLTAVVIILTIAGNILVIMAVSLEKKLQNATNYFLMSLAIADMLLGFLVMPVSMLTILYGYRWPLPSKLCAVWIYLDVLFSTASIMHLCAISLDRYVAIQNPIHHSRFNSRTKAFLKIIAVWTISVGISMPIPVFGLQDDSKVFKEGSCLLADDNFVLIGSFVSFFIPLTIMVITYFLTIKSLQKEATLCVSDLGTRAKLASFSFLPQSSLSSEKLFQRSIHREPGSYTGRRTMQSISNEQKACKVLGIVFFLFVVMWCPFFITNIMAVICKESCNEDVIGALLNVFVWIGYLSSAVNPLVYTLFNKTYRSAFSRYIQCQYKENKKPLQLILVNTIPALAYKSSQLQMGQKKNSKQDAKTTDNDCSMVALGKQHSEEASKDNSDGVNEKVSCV
# [11] = target: Serine/threonine-protein kinase pim-3 (Homo sapiens) (UniProt Q86V86); conditions: Compound concentration 1000.0 nM
# [12] = target: Protein kinase C eta type (Homo sapiens) (UniProt P24723); conditions: Compound concentration 1000.0 nM
# Chain of Protein kinase C eta type (Homo sapiens) (P24723 whole entry): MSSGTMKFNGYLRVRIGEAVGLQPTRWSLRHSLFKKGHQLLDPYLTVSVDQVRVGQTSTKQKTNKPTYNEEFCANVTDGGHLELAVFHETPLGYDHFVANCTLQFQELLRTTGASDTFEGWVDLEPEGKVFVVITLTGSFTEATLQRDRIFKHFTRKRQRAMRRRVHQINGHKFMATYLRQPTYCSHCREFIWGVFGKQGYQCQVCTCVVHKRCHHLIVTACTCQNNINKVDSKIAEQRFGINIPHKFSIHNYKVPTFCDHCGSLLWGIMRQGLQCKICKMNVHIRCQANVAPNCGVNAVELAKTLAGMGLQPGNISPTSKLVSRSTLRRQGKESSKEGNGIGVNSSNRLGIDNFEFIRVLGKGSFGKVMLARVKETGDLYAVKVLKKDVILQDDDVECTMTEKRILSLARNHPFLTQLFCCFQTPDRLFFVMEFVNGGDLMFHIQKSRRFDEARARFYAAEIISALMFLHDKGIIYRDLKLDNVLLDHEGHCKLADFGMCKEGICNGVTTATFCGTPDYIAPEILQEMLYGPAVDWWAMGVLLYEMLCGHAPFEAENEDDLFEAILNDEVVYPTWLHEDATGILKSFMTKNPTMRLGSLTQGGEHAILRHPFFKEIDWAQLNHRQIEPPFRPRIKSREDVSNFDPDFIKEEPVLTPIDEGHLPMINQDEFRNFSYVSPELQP
SMILES,residual activity [1] [%],residual activity [2] [%],residual activity [3] [%],residual activity [4] [%],residual activity [5] [%],residual activity [6] [%],residual activity [7] [%],residual activity [8] [%],residual activity [9] [%],inhibition [10] [%],residual activity [11] [%],residual activity [12] [%]
CCc1ccccc1C(=O)Nc1n[nH]c2c(C)c(F)c(C3C(C#N)=C(C)N(C)C(C)=C3C#N)cc12 [BAY-3827],100,82,94,95,54,100,100,85,52,14.8,100,32
CC1=C(C#N)C(c2ccc3c(c2)c(NC(=O)c2ccccc2C)nn3C)C(C#N)=C(C)N1 [BAY-974],65,82,100,100,91,92,92,100,88,8.41,100,94
